The values below come from patent publication US20250318528A1, “HERBICIDE COMPOSITION AND WEED CONTROLLING METHOD” (SUMITOMO CHEMICAL COMPANY, LIMITED, priority 2022, published 2025).

Structures are written as SMILES. Counter-ions that a name gives are not always drawn.

What all share (format): in vivo
Test [1] relates to Italian ryegrass (Lolium multiflorum). The test is described as follows: Herbicidal effect, foliar spray pot test (Example 349). The settings on record: sprayed 21 days after seeding, evaluated after 4 days, rating 0 to 100. How it is done: (§1) The formulation (1-41) was produced in the same manner as in Example 348.
(§2) After filling a plastic pot with soil, common barnyardgrass (Echinochloa crus-galli) and Italian ryegrass (Lolium multiflorum) were seeded therein and grown in a greenhouse. The weeds were then cultivated in the greenhouse, and 21 days after seeding, a spray liquid containing the formulation (1-41) and/or EnlistOne (670 g/L of 2,4-D choline salt, manufactured by Dow AgroSciences) prepared so that the application rate of the compound (I-41) might be 20 g/ha and the application rate of EnlistOne might be 798 g/ha as an equivalent of 2,4-D choline salt (1.754 L/ha (24 fluid ounce/acre) as […]) was uniformly sprayed above the pot using a spraying machine so that the spray liquid amount might be 218 L/ha. Thereafter, the weeds were grown in the greenhouse for 4 days and the herbicidal effect was evaluated.
(§3) From the results of the herbicidal effect (value of A or B) for the single use of each of the compounds, the expected value of the herbicidal effect when the compounds were combined was determined according to the Colby's equation: […]

Test [2] has as its system common barnyardgrass (Echinochloa crus-galli). Described as above. The settings on record: sprayed 21 days after seeding, evaluated after 4 days, rating 0 to 100. How it is done:
as §1, §2, §3

In test [3] the test system is Italian ryegrass (Lolium multiflorum). The test is described as follows: Herbicidal effect, foliar spray pot test (Example 347). The conditions noted are these: sprayed 17 days after seeding, evaluated after 4 days, rating 0 to 100. On the procedure: (§4) The formulation (I-15) was produced in the same manner as in Example 346.
(§5) After filling a plastic pot with soil, common barnyardgrass (Echinochloa crus-galli) and Italian ryegrass (Lolium multiflorum) were seeded therein and grown in a greenhouse. The weeds were then cultivated in the greenhouse, and 17 days after seeding, a spray liquid containing the formulation (1-15) and/or Xtendimax (350 g/L of dicamba diglycolamine salt, manufactured by Monsanto Company) prepared so that the application rate of the compound (I-15) might be 20 g/ha and the application rate of Xtendimax might be 560 g/ha as an equivalent of dicamba acid (1.608 L/ha (22.0 fluid ounce/acre) as Xtendimax) was uniformly sprayed above the pot using a spraying machine so that the spray liquid amount might be 218 L/ha. Thereafter, the weeds were grown in the greenhouse for 4 days and the herbicidal effect was evaluated.
as §3

The subject of test [4] is common barnyardgrass (Echinochloa crus-galli). Described as above. The settings on record: sprayed 17 days after seeding, evaluated after 4 days, rating 0 to 100. How it is done:
as §4, §5, §3

For test [5], the system named is Italian ryegrass (Lolium multiflorum). The test is described as follows: Herbicidal effect, foliar spray pot test (Example 346). The settings on record: sprayed 17 days after seeding, evaluated after 4 days, rating 0 to 100. How it is done:
(§6) The compound (I-15) (55 mg), 76.5 mg of Emulsogen TS290 (polyoxyethylene tristyryl phenyl ether, manufactured by Clariant) and 76.5 mg of Phenylsulfonat CAL (mixture of 70% calcium dodecylbenzenesulfonate and 30% iso-butanol, manufactured by Clariant) were dissolved in Solvesso 200ND (aromatic hydrocarbon, manufactured by Exxon Mobile Corporation) to make 1 ml in total, thus producing an emulsifiable concentrate (hereinafter referred to as formulation (I-15)).
(§7) After filling a plastic pot with soil, common barnyardgrass (Echinochloa crus-galli) and Italian ryegrass (Lolium multiflorum) were seeded therein and grown in a greenhouse. The weeds were then cultivated in the greenhouse, and 17 days after seeding, a spray liquid containing the formulation (1-15) and/or Roundup PowerMax (660 g/L of glyphosate potassium salt, manufactured by Monsanto Company) prepared so that the application rate of the compound (I-15) might be 20 g/ha and the application rate of Roundup PowerMax might be 1262 g/ha as an equivalent of glyphosate acid (2.338 L/ha (32 fluid ounce/acre) as Roundup PowerMax) was uniformly sprayed above the pot using a spraying machine so that the spray liquid amount may be 218 L/ha. Thereafter, the weeds were grown in the greenhouse for 4 days and the herbicidal effect was evaluated.
as §3

The test system of test [6] is common barnyardgrass (Echinochloa crus-galli). Described as above. The settings on record: sprayed 17 days after seeding, evaluated after 4 days, rating 0 to 100. How it is done:
as §6, §7, §3

The test system of the next test is weeds. The test is described as follows: Examples 1 to 23 with compound (I-15) replaced by another compound (I) (Examples 24 to 115). The conditions noted are these: as Examples 1 to 23 with compound (I-15) replaced; used with pyroxasulfone, saflufenacil, flumioxazin and/or glyphosate-potassium salt; crop soybean, corn or cotton.
Test [7] concerns Italian ryegrass (Lolium multiflorum). The test is described as follows: Herbicidal effect, foliar spray pot test (Example 348). The settings on record: sprayed 17 days after seeding, evaluated after 4 days, rating 0 to 100. On the procedure: (§8) The compound (I-41) (55 mg), 76.5 mg of Emulsogen TS290 (polyoxyethylene tristyryl phenyl ether, manufactured by Clariant) and 76.5 mg of Phenylsulfonat CAL (mixture of 70% calcium dodecylbenzenesulfonate and 30% iso-butanol, manufactured by Clariant) were dissolved in Solvesso 200ND (aromatic hydrocarbon, manufactured by Exxon Mobile Corporation) to make 1 ml in total, thus producing an emulsifiable concentrate (hereinafter referred to as formulation (I-41)).
(§9) After filling a plastic pot with soil, common barnyardgrass (Echinochloa crus-galli) and Italian ryegrass (Lolium multiflorum) were seeded therein and grown in a greenhouse. The weeds were then cultivated in the greenhouse, and 17 days after seeding, a spray liquid containing the formulation (1-41) and/or Liberty (280 g/L of glufosinate ammonium salt, manufactured by Bayer) prepared so that the application rate of the compound (I-41) might be 20 g/ha and the application rate of Liberty might be 594 g/ha as glufosinate ammonium salt (2.12 L/ha (29.0 fluid ounce/acre) as Liberty) was uniformly sprayed above the pot using a spraying machine so that the spray liquid amount might be 218 L/ha. Thereafter, the weeds were grown in the greenhouse for 4 days and the herbicidal effect was evaluated.
as §3

For test [8], the system named is common barnyardgrass (Echinochloa crus-galli). Described as above. The conditions noted are these: sprayed 17 days after seeding, evaluated after 4 days, rating 0 to 100. On the procedure:
as §8, §9, §3

The mark [9] stands for this setting: 2,4-D choline salt 798 g/ha (EnlistOne) alone.
Where [10] appears, read: compound (I-15) 20 g/ha alone, 218 L/ha.
Where [11] appears, read: compound (I-41) 20 g/ha alone, 218 L/ha.
Setting [12] is: dicamba diglycolamine salt 560 g/ha (dicamba acid equivalent, Xtendimax) alone.
Where [13] appears, read: glufosinate ammonium salt 594 g/ha (Liberty) alone.
The mark [14] stands for this setting: glyphosate potassium salt 1,262 g/ha (glyphosate acid equivalent, Roundup PowerMax) alone.

Regarding `C[N+](C)(C)CCO.O=C([O-])COc1ccc(Cl)cc1Cl` [2,4-D choline salt, reference compound], the “Herbicidal effect Observed value” in test [1] (setting [9]) is 5; in test [2] (setting [9]) it was 10.
As to `COC(=O)C(C)OC(=O)C1(Oc2cc(-n3c(=O)cc(C(F)(F)F)n(C)c3=O)c(F)cc2Cl)CC1` (centres unmarked) [Compound (I-15)], the “Herbicidal effect Observed value” in test [3] (setting [10]) was 20; in test [4] (setting [10]), 70; in test [5] (setting [10]), 20; in test [6] (setting [10]) it was 70.
For `CCOC(=O)C(C)OC(=O)C1(Oc2cc(-n3c(=O)cc(C(F)(F)F)n(C)c3=O)c(F)cc2Cl)CC1` (centres unmarked) [Compound (I-29)], the “weed control effect compared to the single use of each of the compounds” value in the test on weeds is “synergistic weed control effect”.
On to `CCOC(=O)C(C)(C)OC(=O)C1(Oc2cc(-n3c(=O)cc(C(F)(F)F)n(C)c3=O)c(F)cc2Cl)CC1` [Compound (I-30)], for which the “weed control effect compared to the single use of each of the compounds” value in the test with weeds is “synergistic weed control effect”.
Still for that read-out and setting: the value for `CCOC(=O)C(CC)OC(=O)C1(Oc2cc(-n3c(=O)cc(C(F)(F)F)n(C)c3=O)c(F)cc2Cl)CC1` (centres unmarked) [Compound (I-33)] was “synergistic weed control effect”.
With `CCOC(=O)C1(OC(=O)C2(Oc3cc(-n4c(=O)cc(C(F)(F)F)n(C)c4=O)c(F)cc3Cl)CC2)CC1` [Compound (I-41)], in the test on weeds, the “weed control effect compared to the single use of each of the compounds” value is given as “synergistic weed control effect”. For the same molecule, the “Herbicidal effect Observed value” in test [1] (setting [11]) came to 20; in [2] (setting [11]), 70; in [7] (setting [11]), 20; in test [8] (setting [11]), 50.
`COc1c(Cl)ccc(Cl)c1C(=O)O.NCCOCCO` [Dicamba diglycolamine salt, dicamba diglycolamine salt, reference compound]: the “Herbicidal effect Observed value” in test [3] (setting [12]) was determined as 0; in test [4] (setting [12]) it was 5.
In the case of `CP(=O)(O)CCC(N)C(=O)O` (centres unmarked) [Glufosinate ammonium salt, glufosinate ammonium salt, reference compound], the results for the “Herbicidal effect Observed value” in test [7] (setting [13]) and in test [8] (setting [13]) were 40 and 70, respectively.
Turning to `O=C(O)CNCP(=O)(O)O` [Glyphosate potassium salt, reference compound], the entries for the “Herbicidal effect Observed value” in [5] (setting [14]) and in [6] (setting [14]) were 10 and 30, respectively.
